# Read-outs that look alike come from different tables or passages of the source.
# What was measured:
# human PBM cells = assay: Cytotoxicity assay in PBM cells; type: cell-based
# Method: (§1) The toxicity of the compounds was assessed in Vero, human PBM, CEM (human lymphoblastoid), MT-2, and HepG2 cells, as described previously (Schinazi […]., Cannon D. L., Xie […]., Smith […]. […] Cycloheximide was included as positive cytotoxic control, and untreated cells exposed to solvent were included as negative controls. The cytotoxicity IC50 was obtained from the concentration-response curve using the median effective method described previously (Chou […]. […] Belen'kii M. S. & Schinazi R. F.
# HIV-1RF = assay: Anti-HIV (in MT-2 cells) assay, viral RNA accumulation; type: cell-based
# Method: In a second antiviral testing system, the potency of the compounds was determined by measurement of viral RNA accumulation in HIV-1RF infected MT-2 cells (Bacheler L T, Paul M, Otto M J, Jadhav P K, Stone B A & Miller J A (1994) An assay for HIV RNIn infected cell lysates, and its use for rapid evaluation of antiviral efficacy. Antivir. Chem. Chemother. 5:111–121). The virus titer was established to determine the dilution producing 15 to 30 ng/RNA per well of HIV RNIn 3 days of infection. HIV-1 RNA was quantified using biotinylated capture and alkaline phosphatase-derivatized reporter oligonucleotides as described previously (Charvet A-S, Camplo M, Faury P, Graciet J C, Mourier N, Chermann J C & Kraus J L (1994) Inhibition of human immunodeficiency virus type 1 replication by phosphonoformate- and phosphonoacetate-2′,3′-dideoxy-3′-thiacytidine conjugates. J. Med. Chem. 37:2216–2223). In a third system, the effect of analogs on the replication of HIV-1NL4-3 was determined via the InterCompany Consortium consensus p24 assay as previously described (Jadhav P K & MacKay M F (1997) Cyclic urea amide: HIV-1 protease inhibitors with low nanomolar potency against both wild types and protease inhibitor resistant mutants of HIV. J. Med. Chem. 40:181–190). Recombinant viruses were recovered by transfecting the appropriate NL4-3 plasmid by lipofection. Virus stocks recovered 7 to 10 days post-transfection were titered on MT-4 cells to determine if the dilution produced 1,000 to 3,000 ng p24 in 4 days. This dilution was then used in drug susceptibility assays, where drug was added 24 h post infection of cells, and p24 quantified by ELISA 3 days later.
# HIV-1LAl = assay: Anti-HIV (in PBM cells) assay, reverse transcriptase readout; type: cell-based
# Method: Anti-HIV-1 activity of the compounds was determined in human peripheral blood mononuclear (PBM) cells as described previously (Schinazi […]., Cannon D., Mathis R., Lloyd R. M. Jr., […]., St. Clair M., Wilson J., Furman P. A., Painter G., Choi […]. Antimicrob. Agents Chemother. 1992, 36, 2423; Schinazi […]., Cannon D., Xie […]., Smith G., Hahn E. Antimicrob. Agents Chemother. 1990, 34, 1061). Stock solutions ([…]) of the compounds were prepared in sterile DMSO and then diluted to the desired concentration in growth medium. […] Virus obtained from the cell supernatant was quantified on day 6 after infection by a reverse transcriptase assay using (rA)n.(dT)12.18 as template-primer. […] AZT was included as positive control. The antiviral EC50 and EC90 were obtained from the concentration-response curve using the median effective method described previously (Chou […]. Enzyme Regul. 1984, 22, 27-55; Belen'kii M. S. & Schinazi R. F. Antiviral Res. 1994, 25, 1-11).
# HepG2 cells = assay: Cytotoxicity assay in HepG2 cells; type: cell-based
# Method: as §1
# [1] = tested on: CEM (human lymphoblastoid) cells; assay: Cytotoxicity assay in CEM cells; type: cell-based
# Method: as §1
# MT-2 cells = assay: Cytotoxicity assay in MT-2 cells; type: cell-based
# Method: as §1
# Vero cells = assay: Cytotoxicity assay in Vero cells; type: cell-based
# Method: as §1
# [2] = Cytotoxicity assay in PBM cells; type: cell-based, human; details: human, human PBM cells
# Method: as §1
# [3] = Cytotoxicity assay in HepG2 cells; type: cell-based; details: human
# Method: as §1
# [4] = Cytotoxicity assay in CEM cells; type: cell-based, human; details: human, CEM lymphoblastoid cells
# Method: as §1
# [5] = Cytotoxicity assay in MT-2 cells; type: cell-based; details: human
# Method: as §1
# [6] = Cytotoxicity assay in Vero cells; type: cell-based; details: African green monkey
# Method: as §1
# [7] = Table 1, read-out: Cytotoxicity in different cells (IC50, μM) PBM
# [8] = Table 1, EC90, MT-2 cells, read-out: Anti-HIV-1 activity in different cells (EC90, μM) MT-2
# [9] = Table 1, read-out: Anti-HIV-1 activity in different cells (EC90, μM) PBM
# [10] = Table 1, read-out: Cytotoxicity in different cells (IC50, μM) HepG2
# [11] = Table 1, read-out: Cytotoxicity in different cells (IC50, μM) CEM
# [12] = Table 1, read-out: Cytotoxicity in different cells (IC50, μM) MT-2
# [13] = Table 1, read-out: Cytotoxicity in different cells (IC50, μM) Vero
# [14] = Human immunodeficiency virus 1, MT2, Table 1, EC90, MT-2 cells, read-out: Anti-HIV-1 activity in different cells (EC90, μM) MT-2
# [15] = Human immunodeficiency virus 1, PBMC, Table 1, read-out: Anti-HIV-1 activity in different cells (EC90, μM) PBM
# [16] = Table 2, read-out: Cytotoxicity in different cells (IC50, μM) PBM
# [17] = Human immunodeficiency virus 1, MT2, Table 2, EC90, MT-2 cells, read-out: Anti-HIV-1 activity in different cells (EC90, μM) MT-2
# [18] = Human immunodeficiency virus 1, PBMC, Table 2, read-out: Anti-HIV-1 activity in different cells (EC90, μM) PBM
# [19] = Table 2, read-out: Cytotoxicity in different cells (IC50, μM) HepG2
# [20] = Table 2, read-out: Cytotoxicity in different cells (IC50, μM) MT-2
# [21] = Table 2, read-out: Cytotoxicity in different cells (IC50, μM) CEM
# [22] = Table 2, read-out: Cytotoxicity in different cells (IC50, μM) Vero
compound,measurement,setting,value
"COc1ccc(C(=O)Nc2nc(=O)n([C@H]3CC[C@@H](CO)O3)cc2F)cc1 [Compound 17, β-D-N^4-p-Anisoyl-2′,3′-dideoxy-5-fluorocytidine]",IC50,human PBM cells; [7],69.2 µM
same,EC90,HIV-1RF; [8],6 µM
same,EC90,HIV-1LAl; [9],8.31 µM
same,IC50,HepG2 cells; [10],4.5 µM
same,IC50,[1]; [11],31.6 µM
same,IC50,MT-2 cells; [12],16 µM
same,IC50,Vero cells; [13],5.3 µM
"Cc1cccc(C(=O)Nc2nc(=O)n([C@H]3CC[C@@H](CO)O3)cc2F)c1 [Compound 23, β-D-2′,3′-Dideoxy-5-fluoro-N-m-toluoylcytidine]",IC50,[2]; [7],8.4 µM
same,EC90,HIV-1RF; [14],0.24 µM
same,EC90,HIV-1LAl; [15],0.012 µM
same,IC50,[3]; [10],> 100 µM
same,IC50,[4]; [11],> 100 µM
same,IC50,[5]; [12],> 50 µM
same,IC50,[6]; [13],61.1 µM
"CCCCc1ccc(C(=O)Nc2nc(=O)n([C@H]3CC[C@@H](CO)O3)cc2F)cc1 [Compound 27, β-D-N^4-(4-n-Butylbenzoyl)-2,3′-dideoxy-5-fluorocytidine]",IC50,human PBM cells; [7],1.1 µM
same,EC90,HIV-1LAl; [9],0.31 µM
same,IC50,HepG2 cells; [10],1.9 µM
same,IC50,[1]; [11],1.3 µM
same,IC50,Vero cells; [13],3.2 µM
"CC(C)(C)c1ccc(C(=O)Nc2nc(=O)n([C@H]3CC[C@@H](CO)O3)cc2F)cc1 [Compound 28, β-D-N^4-(4-tert-Butylbenzoyl)-2,3′-dideoxy-5-fluorocytidine]",IC50,human PBM cells; [7],12.5 µM
same,EC90,HIV-1RF; [8],0.6 µM
same,EC90,HIV-1LAl; [9],0.088 µM
same,IC50,HepG2 cells; [10],21.3 µM
same,IC50,[1]; [11],6 µM
same,IC50,Vero cells; [13],25.9 µM
"O=C(Nc1nc(=O)n([C@H]2CC[C@@H](CO)O2)cc1F)c1cccs1 [Compound 30, β-D-2′,3′-Dideoxy-5-fluoro-N^4-(2-thiophenecarbonyl)cytidine]",IC50,[2]; [7],19.4 µM
same,EC90,HIV-1RF; [14],0.4 µM
same,EC90,HIV-1LAl; [15],0.052 µM
same,IC50,[3]; [10],37.9 µM
same,IC50,[4]; [11],13.7 µM
same,IC50,[5]; [12],> 50 µM
same,IC50,[6]; [13],23.9 µM
"O=C(Nc1nc(=O)n([C@H]2CC[C@@H](CO)O2)cc1F)c1cc2ccccc2s1 [Compound 32, β-D-2′,3′-Dideoxy-5-fluoro-N^4-(benzo[b]thiophene-2-carbonyl)cytidine]",IC50,[2]; [7],23.5 µM
same,EC90,HIV-1RF; [14],0.3 µM
same,EC90,HIV-1LAl; [15],0.19 µM
same,IC50,[3]; [10],1.3 µM
same,IC50,[4]; [11],4.5 µM
same,IC50,[5]; [12],> 50 µM
same,IC50,[6]; [13],39.6 µM
"O=C(Nc1nc(=O)n([C@H]2CC[C@@H](CO)O2)cc1F)C1CCCCC1 [Compound 33, β-D-N^4-(Cyclohexanecarbonyl)-2′,3′-dideoxy-5-fluorocytidine]",IC50,[2]; [7],4.5 µM
same,EC90,HIV-1RF; [14],0.3 µM
same,EC90,HIV-1LAl; [15],0.086 µM
same,IC50,[3]; [10],6.5 µM
same,IC50,[4]; [11],6.4 µM
same,IC50,[5]; [12],50 µM
same,IC50,[6]; [13],11.8 µM
"COc1ccc(C(=O)Nc2nc(=O)n([C@H]3C=C[C@@H](CO)O3)cc2F)cc1 [Compound 42, β-D-N^4-p-Anisoyl-2′,3′-didehydro-2′,3′dideoxy-5-fluorocytidine]",IC50,[2]; [16],> 100 µM
same,EC90,HIV-1RF; [17],0.58 µM
same,EC90,HIV-1LAl; [18],0.7 µM
same,IC50,[3]; [19],> 100 µM
same,IC50,[5]; [20],> 50 µM
"O=C(Nc1nc(=O)n([C@H]2C=C[C@@H](CO)O2)cc1F)c1cccc([N+](=O)[O-])c1 [Compound 46, β-D-2′,3′-Didehydro-2,3′-dideoxy-5-fluoro-N^4-(3-nitrobenzoyl)cytidine]",IC50,[2]; [16],11.9 µM
same,EC90,HIV-1RF; [17],0.58 µM
same,EC90,HIV-1LAl; [18],0.93 µM
same,IC50,[3]; [19],> 100 µM
same,IC50,[4]; [21],54.5 µM
same,IC50,[5]; [20],> 50 µM
same,IC50,[6]; [22],> 100 µM
"Cc1ccc(C(=O)Nc2nc(=O)n([C@H]3C=C[C@@H](CO)O3)cc2F)cc1 [Compound 48, β-D-2′,3′-Didehydro-2′,3′-dideoxy-5-fluoro-N^4-p-toluoylcytidine]",IC50,[2]; [16],13.2 µM
same,EC90,HIV-1RF; [17],0.21 µM
same,EC90,HIV-1LAl; [18],0.32 µM
same,IC50,[3]; [19],> 100 µM
same,IC50,[4]; [21],31.9 µM
same,IC50,[5]; [20],> 50 µM
same,IC50,[6]; [22],> 100 µM
"Cc1cccc(C(=O)Nc2nc(=O)n([C@H]3C=C[C@@H](CO)O3)cc2F)c1 [Compound 49, β-D-2,3′-Didehydro-2,3′-dideoxy-5-fluoro-N^4-m-toluoylcytidine]",IC50,[2]; [16],57.1 µM
same,EC90,"HIV-1RF; Human immunodeficiency virus 1, MT2, read-out: Anti-HIV-1 activity in different cells (EC90, μM) MT-2",0.8 µM
same,EC90,HIV-1LAl; [18],0.7 µM
same,IC50,[3]; [19],> 100 µM
same,IC50,[4]; [21],34.9 µM
same,IC50,[5]; [20],> 50 µM
same,IC50,[6]; [22],149 µM
"CCCCc1ccc(C(=O)Nc2nc(=O)n([C@H]3C=C[C@@H](CO)O3)cc2F)cc1 [Compound 52, β-D-N^4-(4-n-Butylbenzoyl)-2′,3′-didehydro-2,3′-dideoxy-5-fluoro-^4cytidine]",IC50,human PBM cells; [16],7.3 µM
same,EC90,"HIV-1LAl; Table 2, read-out: Anti-HIV-1 activity in different cells (EC90, μM) PBM",3.1 µM
same,IC50,HepG2 cells; [19],5.1 µM
same,IC50,[1]; [21],8.5 µM
same,IC50,Vero cells; [22],29.4 µM
"O=C(Nc1nc(=O)n([C@H]2C=C[C@@H](CO)O2)cc1F)C1CCCC1 [Compound 57, β-D-N^4-(Cyclopentanecarbonyl)-2′,3′-didehydro-2′,3′-dideoxy-5-fluorocytidine]",IC50,[2]; [16],52.9 µM
same,EC90,HIV-1RF; [17],0.51 µM
same,EC90,HIV-1LAl; [18],0.4 µM
same,IC50,[3]; [19],> 100 µM
same,IC50,[4]; [21],19.6 µM
same,IC50,[5]; [20],> 50 µM
same,IC50,[6]; [22],87.6 µM
"O=C(Nc1nc(=O)n([C@H]2C=C[C@@H](CO)O2)cc1F)C1CCCCC1 [Compound 58, β-D-N-(Cyclohexanecarbonyl)-2′ 3′-didehydro-2′,3′-dideoxy-5-fluorocytidine]",IC50,[2]; [16],11.7 µM
same,EC90,HIV-1RF; [17],0.38 µM
same,EC90,HIV-1LAl; [18],0.6 µM
same,IC50,[3]; [19],> 100 µM
same,IC50,[4]; [21],11.2 µM
same,IC50,[5]; [20],> 50 µM
same,IC50,[6]; [22],> 100 µM
"CCCCCCC(=O)Nc1nc(=O)n(C2C=CC(CO)O2)cc1F [Compound 59, β-D-2′,3′-Didehydro-2′,3′-dideoxy-5-fluoro-N^4-heptanoylcytidine]",EC90,"HIV-1RF; Table 2, EC90, MT-2 cells, read-out: Anti-HIV-1 activity in different cells (EC90, μM) MT-2",0.23 µM
same,IC50,MT-2 cells; [20],6.2 µM
